Legend:
Coccomyxa actinabiotis [1] = test: Extraction of bound metals from the microalgae with water or HCl; format: cell-based
Procedure: Experiments in which the metals bound by the algae are solubilized were carried out by incubating these algae (70 mg of fresh matter) in 5 ml of demineralized water, or of demineralized water supplemented with HCl at various concentrations. In neutral medium, the metals are not extracted.
The cations most retained are ^60Co, ^108mAg and ^110mAg. They remain bound to the cell for low concentrations of HCl (pH 4.5 to 2.5). They begin to be released exponentially below a threshold pH of 2.5, Co being the most solidly bound since it is at most 35% extracted after 6 days of exposure at pH 0.5, whereas Ag is 90% extracted under the same conditions. At pH 1.5, 10% of Ag and 2% of Co are extracted after 6 days of exposure.

Coccomyxa actinabiotis [2] = format: cell-based; settings: after one day; 250 mg fresh mass of microalgae from BBM culture
Procedure: Another experiment was carried out by placing 250 mg of fresh mass of microalgae originating from cultures in BBM medium in the presence of […] of demineralized water which has a composition similar to that of the water from the spent fuel storage pools, namely pH 5.5, conductivity 1.2 μS/cm, containing 280 Bq/l of ^60Co, 530 Bq/l of ^58Co, 66 Bq/l of ^110mAg, 1460 Bq/l of ^124Sb, 1180 Bq/l of ^51Cr, 120 Bq/l of ^65Zn, […] and also tritium (260 000 Bq/l) and ^14C (10 000 Bq/l).

Coccomyxa actinabiotis [3] = test: Extraction of bound metals from the microalgae with 0.1 M EDTA pH 4.5; format: cell-based; settings: 0.1 M EDTA pH 4.5, 2 days of exposure
Procedure: Other experiments were carried out in the presence of a 0.1 M solution of EDTA with a pH of 4.5. Under these conditions, 35% of the ^51Cr contained in the algae, but only 1% of the ^60Co and less than 0.5% of ^108mAg and ^116mAg, are extracted after 2 days of exposure.

Coccomyxa actinabiotis [4] = test: Transported decontamination of storage pool water, 24 h contact; format: cell-based; settings: 50 ml water, 9×10^8 cells (140 mg fresh mass)
Procedure: Water originating from a spent nuclear element storage pool was brought into contact with Coccomyxae actinabiotis(50 ml of water in contact with 9×10^8 cells, i.e. 140 mg of algae by fresh mass, originating from culture and rinsed beforehand three times with Milli-Q water).
Table V below indicates the initial composition of the water, according to the total γ-activity measured and the γ-activity measured per radionuclide, and the percentage of γ-emitting radionuclides bound by the algae at 24 h.

Deinococcus radiodurans = settings: John et al. 2000; cited from earlier work
Coccomyxa actinabiotis [5] = test: Growth in the presence of cobalt; format: cell-based
Source text: However, the Coccomyxa actinabiotis microalga does grow in the presence of 10^−4 mol/l of cobalt.

Coccomyxa actinabiotis [6] = test: Maximum metal concentrations tolerated (one week exposure to Ag or Co); format: cell-based
Procedure: The limiting doses supported by Coccomyxa actinabiotis were investigated by exposure of the algae to silver or to cobalt for one week (20 mg of microalgae (fresh mass) in 100 ml of deionized water containing Ag or Co ions at various concentrations).

Coccomyxa actinabiotis [7] = test: Exposure to heavy water: respiration and photosynthesis of the algae; format: cell-based; settings: 24 h and 48 h in 50%, 80% and 100% D2O in the dark; 24 h light in 50% D2O
organisms = settings: Ratte 1999; cited from earlier work
Coccomyxa actinabiotis [8] = test: Kinetics of binding and incorporation of silver by algae with or without mucilage; format: cell-based
Procedure: Two series of experiments were carried out: one with algae having a coating of mucilage, the thickness of which, evaluated by optical microscopy, is about 1 μm or more (“algae with mucilage”), the other with algae cultured in BBM medium and having little or no mucilage (“algae without mucilage”).
20 mg of algae (compacted fresh mass) and 90 ml of solution of Ag^+ at various concentrations are introduced into Erlenmeyer flasks. The 20 mg of algae are prepared as follows: sample taken from a round-bottomed culture flask, centrifugation for 20 minutes at 3000 rpm, washing twice in demineralized water (suspension, centrifugation). The culture medium is thus removed and there is no risk of it complexing the silver.
The algae without mucilage are brought into contact with solutions containing 0.11 mg/L and 5.5 mg/L of Ag^+.
The algae with mucilage are brought into contact with solutions containing 22 μg/L, 1.1 mg/L and 55 mg/L of Ag^+.
The Erlenmeyer flasks are placed on illuminated shakers and samples of 5 ml are taken for various exposure times in order to monitor the binding kinetics for each of the initial concentrations of silver. The samples are centrifuged for 10 minutes at 4500 rpm in order to separate the algae which have concentrated the metal. The metal content is then analyzed in the pellet (algae) and in the supernatant.

Structure (SMILES): [51Cr] [^51Cr]
- metal extracted from algae (Coccomyxa actinabiotis [1]; pH 0.5, 6 days of exposure): ≤ 25%
- percentage of isotope fixed (Coccomyxa actinabiotis [2]): 48%
- metal contained in the algae extracted (Coccomyxa actinabiotis [3]): 35%

Structure (SMILES): [Mn] [^54Mn]
- percentage of isotope fixed (Coccomyxa actinabiotis [2]): 90%
- % binding by the algae (Coccomyxa actinabiotis [4]): 100%

Structure (SMILES): [58Co] [^58Co]
- percentage of isotope fixed (Coccomyxa actinabiotis [2]): 94%

Structure (SMILES): [60Co] [^60Co]
- percentage of isotope fixed (Coccomyxa actinabiotis [2]): 94%
- metal contained in the algae extracted (Coccomyxa actinabiotis [3]): 1%
- % binding by the algae (Coccomyxa actinabiotis [4]): 72%

Structure (SMILES): [65Zn] [^65Zn]
- percentage of isotope fixed (Coccomyxa actinabiotis [2]): 100%

Structure (SMILES): [110Ag] [^110mAg]
- percentage of isotope fixed (Coccomyxa actinabiotis [2]): 100%
- % binding by the algae (Coccomyxa actinabiotis [4]): 100%

Structure (SMILES): [124Sb] [^124Sb]
- percentage of isotope fixed (Coccomyxa actinabiotis [2]): 30%

Structure (SMILES): [137Cs] [^137Cs]
- % binding by the algae (Coccomyxa actinabiotis [4]): 100%

Structure (SMILES): [U] [^238U]
- % binding by the algae (Coccomyxa actinabiotis [4]): 95%

Structure (SMILES): [Co+2] [cobalt]
- cobalt concentration inhibiting growth (Deinococcus radiodurans): 5 ppm
- metal extracted from algae (Coccomyxa actinabiotis [1]; pH 0.5, 6 days of exposure): at most 35%
- metal extracted from algae (Coccomyxa actinabiotis [1]; pH 1.5, 6 days of exposure): 2%
- cobalt concentration in the presence of which the microalga grows (Coccomyxa actinabiotis [5]): 10^−4 mol/l
- cobalt intolerance threshold (Co2+ concentration) (Coccomyxa actinabiotis [6]; with mucilage): > 800 mg/L
- cobalt intolerance threshold (Co2+ concentration) (Coccomyxa actinabiotis [6]; without mucilage): > 50 mg/L

Structure (SMILES): [2H]O[2H] [heavy water]
- effect on respiration and photosynthesis of the algae (Coccomyxa actinabiotis [7]): no effect

Structure (SMILES): [Ag] [silver]
- metal extracted from algae (Coccomyxa actinabiotis [1]; pH 0.5, 6 days of exposure): 90%
- metal extracted from algae (Coccomyxa actinabiotis [1]; pH 1.5, 6 days of exposure): 10%
- concentration at which silver is generally toxic (organisms): 10^−7-10^−5 mol/l
- silver bound at the plateau (Coccomyxa actinabiotis [8]; algae with mucilage, initial concentration 55 mg/l): 20%
- silver bound at the plateau (Coccomyxa actinabiotis [8]; algae without mucilage, initial concentration 5.5 mg/l): 75%
- extracellular silver concentration withstood (Coccomyxa actinabiotis [6]; Coccomyxae actinabiotis with mucilage): at least 50 mg/L
- silver concentration at which algae do not survive (Coccomyxa actinabiotis [6]; Coccomyxae actinabiotis without mucilage): greater than 250 μg/L
